Results reported in patent US7691382B2, “Antiviral polypeptides comprising tandem repeats of APOE 141-149 and variants thereof” (priority 2003, dated 2010).
Where “and” joins values, the source holds several entries; their conditions need not be identical. Identical values can stand only once. Like-named read-outs stand apart in the source and are kept apart here. Peptide text beside a SMILES is read from it.

Tests used:
HSV1 [1] = type: cell-based, Human herpes simplex virus type 1
Summary of the method: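 Plaque reduction in Vero monolayers: ~100 pfu HSV1 pre-mixed 10 min at 37 °C with acetylated/amidated peptides in 0.5% FCS medium, inoculated 60–80 min, then carboxymethylcellulose overlay for 22 or 40 h. Plaques counted after fixing and carbol fuchsin staining; IC50 from % of control versus peptide concentration.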

HSV2 clinical isolates = type: cell-based, Human herpes simplex virus type 2
Experimental: Plaque assays were performed. The methodology was as described in previous Examples for HSV1 plaque assays (including usage of Vero cells) except HSV2 clinical isolates (provided by Prof. Anthony Hart of Liverpool University) were employed instead.

HSV1 [2] = assay: HSV1 plaque formation in Vero cells (Example 1); type: cell-based, Human herpes simplex virus type 1; settings: for HSV1 plaque formation in Vero cells, plaque count, wells 1-4: 1 hour; for HSV1 plaque formation in Vero cells, Mean ± sd: untreated 107 ± 14.2
Experimental: FIG. 1 and table 1 show typical results for the test for anti-HSV1 activity. The assay involved treating confluent Vero cells in 24-well plates with medium containing virus and varying amounts of peptide for one hour, followed by removal of this inoculum, and addition of viscous ‘overlay’ medium, containing 0.2% high viscosity carboxymethylcellulose. The overlay medium only allows infection of those cells immediately adjacent to an infected cell. After 2 days incubation and then fixation and staining, small patches of infected cells (or ‘plaques’) are visible, which are counted. Each of these corresponds to the infection of a single cell during the one hour inoculation. ApoE141-149dp produced a 40% reduction in plaque number at a concentration of around 20 μM. Note the peptide was only present in the experimental system for 1 hour.

HIV-1 = settings: for activity against HIV, significance by ANOVA (in words): FIG. 3, acutely infected U937 cells; for reduction in infectivity (HIV): at 20 μM; for reduction in infectivity (HIV) / % Decrease in HIV p24 Production, Mean ± sd / % Decrease in HIV p24 Production, Exp. 1-3: U937 cells, 7 days
Experimental: The assay was carried out by incubating HIV infected U937 cells in the presence of various levels of peptide for 7 days, followed by assay for levels of the HIV protein p24 in the cells using an Enzyme Linked Immunoabsorbant Assay (ELISA) technique.

HSV2 = HSV2 plaque formation in HEp-2 cells (Example 1); type: cell-based, Human herpes simplex virus type 2; settings: for HSV2 plaque formation in HEp-2 cells, plaque count, wells 1-4: 1 hour; for HSV2 plaque formation in HEp-2 cells, Mean ± sd: untreated 152 ± 10.7
Experimental: FIG. 2 and table 2 show typical results for the test for anti-HSV2 activity. The assay was carried out as for the anti-HSV1 assay, except Hep-2 cells were used rather than Vero cells. ApoE141-149dp produced a 50% reduction in plaque number at a concentration of around 20 μM. Again note that the peptide was only present in the experimental system for 1 hour.

[3] = peptide 10 μM in virus inoculum
[4] = peptide 20 μM in virus inoculum
[5] = peptide 30 μM in virus inoculum
[6] = peptide 40 μM in virus inoculum
[7] = at a concentration of around 20 μM, peptide present 1 hour
[8] = peptide 5 μM in virus inoculum, listed as ApoE141-149dp
[9] = peptide 10 μM in virus inoculum, listed as ApoE141-149dp
[10] = peptide 20 μM in virus inoculum, listed as ApoE141-149dp
[11] = peptide 30 μM in virus inoculum, listed as ApoE141-149dp
[12] = peptide 40 μM in virus inoculum, listed as ApoE141-149dp

Compound	IC50 (HSV1 [1])	IC50 (HSV2 clinical isolates)	HSV1 plaque formation in Vero cells, Mean ± sd (HSV1 [2]; peptide 5 μM)	HSV1 plaque formation in Vero cells, Mean ± sd (HSV1 [2]; peptide 10 μM)	HSV1 plaque formation in Vero cells, Mean ± sd (HSV1 [2]; peptide 20 μM)	HSV1 plaque formation in Vero cells, Mean ± sd (HSV1 [2]; peptide 30 μM)	HSV1 plaque formation in Vero cells, Mean ± sd (HSV1 [2]; peptide 40 μM)	activity against HIV, significance by ANOVA (in words) (HIV-1)	reduction in infectivity (HIV) (HIV-1)	% Decrease in HIV p24 Production, Mean ± sd (HIV-1; peptide 10 μM)	% Decrease in HIV p24 Production, Mean ± sd (HIV-1; peptide 20 μM)	% Decrease in HIV p24 Production, Mean ± sd (HIV-1; peptide 30 μM)	% Decrease in HIV p24 Production, Mean ± sd (HIV-1; peptide 40 μM)	% Decrease in HIV p24 Production, Mean ± sd (HIV-1; peptide 50 μM)	HSV2 plaque formation in HEp-2 cells, Mean ± sd (HSV2; peptide 5 μM)	HSV2 plaque formation in HEp-2 cells, Mean ± sd (HSV2; peptide 10 μM)	HSV2 plaque formation in HEp-2 cells, Mean ± sd (HSV2; peptide 20 μM)	HSV2 plaque formation in HEp-2 cells, Mean ± sd (HSV2; peptide 30 μM)	HSV2 plaque formation in HEp-2 cells, Mean ± sd (HSV2; peptide 40 μM)	also measured
CC(=O)N[C@@H](Cc1c[nH]c2ccccc12)C(=O)N[C@@H](CCCNC(=N)N)C(=O)N[C@@H](CCCCN)C(=O)N[C@@H](Cc1c[nH]c2ccccc12)C(=O)N[C@@H](CCCNC(=N)N)C(=O)N[C@@H](CCCCN)C(=O)N[C@@H](CCCNC(=N)N)C(=O)N[C@@H](Cc1c[nH]c2ccccc12)C(=O)N[C@@H](Cc1c[nH]c2ccccc12)C(=O)N[C@@H](CCCNC(=N)N)C(=O)N[C@@H](Cc1c[nH]c2ccccc12)C(=O)N[C@@H](CCCNC(=N)N)C(=O)N[C@@H](CCCCN)C(=O)N[C@@H](Cc1c[nH]c2ccccc12)C(=O)N[C@@H](CCCNC(=N)N)C(=O)N[C@@H](CCCCN)C(=O)N[C@@H](CCCNC(=N)N)C(=O)N[C@@H](Cc1c[nH]c2ccccc12)C(=O)N[C@@H](Cc1c[nH]c2ccccc12)C(=O)N[C@@H](CCCNC(=N)N)C(N)=O [MU 83] (Ac-WRKWRKRWWRWRKWRKRWWR-NH2)	2.5 µM	< 3.3 µM																		
ApoE263-286: apoE263-286 peptide tested alongside apoE141-149dp in Example 1 (SWFEPLVEDMQRQWAGLVEKVQAA; UniProt P02649 281-304, looked up, fragment) [reference compound]			120 ± 5.5	114 ± 11.1	127 ± 17.0	121 ± 11.2	126 ± 11.2	did not reach significance	20%	23.21 ± 12.79%	22.77 ± 13.07%	35.85 ± 7.21%	38.87 ± 12.70%	40.16 ± 6.25%	152 ± 12.0	141 ± 16.1	146 ± 27.3	124 ± 24.2	131 ± 24.2	HSV1 plaque formation in Vero cells, plaque count, wells 1-4 (HSV1 [2]; peptide 5 μM in virus inoculum): 113 and 119 and 122 and 126; HSV1 plaque formation in Vero cells, plaque count, wells 1-4 (HSV1 [2]; [3]): 116 and 124 and 102; HSV1 plaque formation in Vero cells, plaque count, wells 1-4 (HSV1 [2]; [4]): 148 and 112 and 133 and 114; HSV1 plaque formation in Vero cells, plaque count, wells 1-4 (HSV1 [2]; [5]): 134 and 109 and 114 and 125; HSV1 plaque formation in Vero cells, plaque count, wells 1-4 (HSV1 [2]; [6]): 120 and 113 and 125 and 144; % Decrease in HIV p24 Production, Exp. 1-3 (HIV-1; peptide 30 μM): 37.94% and 27.83% and 41.78%; % Decrease in HIV p24 Production, Exp. 1-3 (HIV-1; peptide 50 μM): 33.36% and 41.45% and 45.66%; HSV2 plaque formation in HEp-2 cells, plaque count, wells 1-4 (HSV2; peptide 5 μM in virus inoculum): 135 and 160 and 161 and 152; HSV2 plaque formation in HEp-2 cells, plaque count, wells 1-4 (HSV2; [3]): 157 and 121 and 151 and 134; HSV2 plaque formation in HEp-2 cells, plaque count, wells 1-4 (HSV2; [4]): 118 and 150 and 182 and 134; HSV2 plaque formation in HEp-2 cells, plaque count, wells 1-4 (HSV2; [5]): 118 and 117 and 103 and 159; HSV2 plaque formation in HEp-2 cells, plaque count, wells 1-4 (HSV2; [6]): 132 and 144 and 125 and 124
CC(C)C[C@H](NC(=O)[C@H](CC(C)C)NC(=O)[C@H](CCCNC(=N)N)NC(=O)[C@H](CCCCN)NC(=O)[C@H](CCCNC(=N)N)NC(=O)[C@H](CC(C)C)NC(=O)[C@H](CCCCN)NC(=O)[C@H](CCCNC(=N)N)NC(=O)[C@H](CC(C)C)NC(=O)[C@H](CC(C)C)NC(=O)[C@H](CC(C)C)NC(=O)[C@H](CCCNC(=N)N)NC(=O)[C@H](CCCCN)NC(=O)[C@H](CCCNC(=N)N)NC(=O)[C@H](CC(C)C)NC(=O)[C@H](CCCCN)NC(=O)[C@H](CCCNC(=N)N)NC(=O)[C@@H](N)CC(C)C)C(=O)O [GIN 1] (H-LRKLRKRLLLRKLRKRLL-OH)	16.5 µM		110 ± 13.2	81 ± 7.9	65 ± 2.6	66 ± 9.0	63 ± 6.6	significantly active	95%	83.94 ± 11.84%	95.02 ± 1.89%	90.78 ± 4.49%	95.87 ± 0.81%	94.79 ± 1.34%	141 ± 13.3	125 ± 8.7	77 ± 5.2	74 ± 2.9	57 ± 9.1	reduction in plaque number (HSV1) (HSV1 [2]; [7]): 40%; HSV1 plaque formation in Vero cells, plaque count, wells 1-4 (HSV1 [2]; [8]): 129 and 106 and 103 and 100; HSV1 plaque formation in Vero cells, plaque count, wells 1-4 (HSV1 [2]; [9]): 73 and 87 and 76 and 89; HSV1 plaque formation in Vero cells, plaque count, wells 1-4 (HSV1 [2]; [10]): 68 and 67 and 63; HSV1 plaque formation in Vero cells, plaque count, wells 1-4 (HSV1 [2]; [11]): 72 and 71 and 56; HSV1 plaque formation in Vero cells, plaque count, wells 1-4 (HSV1 [2]; [12]): 64 and 65 and 53 and 68; efficacy for reducing HSV1 infectivity (in words) (HSV1 [1]; Examples 2 and 3): good efficacy; % Decrease in HIV p24 Production, Exp. 1-3 (HIV-1; peptide 10 μM, listed as ApoE141-149dp): 91.66% and 70.31% and 89.85%; % Decrease in HIV p24 Production, Exp. 1-3 (HIV-1; peptide 20 μM, listed as ApoE141-149dp): 96.87% and 95.08% and 93.10%; % Decrease in HIV p24 Production, Exp. 1-3 (HIV-1; peptide 30 μM, listed as ApoE141-149dp): 95.94% and 88.63% and 87.77%; % Decrease in HIV p24 Production, Exp. 1-3 (HIV-1; peptide 40 μM, listed as ApoE141-149dp): 96.80% and 95.47% and 95.33%; % Decrease in HIV p24 Production, Exp. 1-3 (HIV-1; peptide 50 μM, listed as ApoE141-149dp): 95.73% and 93.25% and 95.38%; reduction in plaque number (HSV2) (HSV2; [7]): 50%; HSV2 plaque formation in HEp-2 cells, plaque count, wells 1-4 (HSV2; [8]): 160 and 134 and 140 and 130; HSV2 plaque formation in HEp-2 cells, plaque count, wells 1-4 (HSV2; [9]): 125 and 113 and 131 and 132; HSV2 plaque formation in HEp-2 cells, plaque count, wells 1-4 (HSV2; [10]): 82 and 72 and 73 and 81; HSV2 plaque formation in HEp-2 cells, plaque count, wells 1-4 (HSV2; [11]): 76 and 77 and 71 and 72; HSV2 plaque formation in HEp-2 cells, plaque count, wells 1-4 (HSV2; [12]): 51 and 59 and 69 and 49
CC(=O)N[C@@H](Cc1c[nH]c2ccccc12)C(=O)N[C@@H](CCCNC(=N)N)C(=O)N[C@@H](CCCCN)C(=O)N[C@@H](Cc1c[nH]c2ccccc12)C(=O)N[C@@H](CCCNC(=N)N)C(=O)N[C@@H](CCCCN)C(=O)N[C@@H](CCCNC(=N)N)C(=O)N[C@@H](Cc1c[nH]c2ccccc12)C(=O)N[C@@H](Cc1c[nH]c2ccccc12)C(=O)N[C@@H](Cc1c[nH]c2ccccc12)C(=O)N[C@@H](CCCNC(=N)N)C(=O)N[C@@H](CCCCN)C(=O)N[C@@H](Cc1c[nH]c2ccccc12)C(=O)N[C@@H](CCCNC(=N)N)C(=O)N[C@@H](CCCCN)C(=O)N[C@@H](CCCNC(=N)N)C(=O)N[C@@H](Cc1c[nH]c2ccccc12)C(=O)N[C@@H](Cc1c[nH]c2ccccc12)C(N)=O [GIN 7] (Ac-WRKWRKRWWWRKWRKRWW-NH2)		< 3.3 µM																		
